Experimental data reported in US11492405B2, “Reducing systemic regulatory t cell levels or activity for treatment of disease and injury of the CNS” (Yeda Research and Development Co. Ltd, priority 2014, dated 2022).
Entries after “also recorded” stand apart in the source; their conditions may differ.

What was measured:
p300 = p300 (Mus musculus, UniProt B2RWS6); conditions: Liu et al, 2013; cited from earlier work
5XFAD AD-Tg mice [1] = test: Soluble Aβ (sAβ) ELISA of cerebral brain parenchyma in AD-Tg mice; type: in vivo, mouse
Procedure: Inhibition of p300 in mice was performed similarly to previously described (Liu et al, 2013). p300i (C646; Tocris Bioscience) was dissolved in DMSO and injected i.p. daily (8.9 mg kg^−1 d^−1, i.p.) for 1 week. Vehicle-treated mice were similarly injected with DMSO.
Tissue homogenization and sAβ protein extraction was performed as previously described (Schmidt et al, 2005). Briefly, cerebral brain parenchyma was dissected and snap-frozen and kept at −80° C. until homogenization. Proteins were sequentially extracted from samples to obtain separate fractions containing proteins of differing solubility. Samples were homogenized in 10 volumes of ice-cold tissue homogenization buffer, containing 250 mM of sucrose, 20 mM of Tris base, 1 mM of ethylenediaminetetraacetic acid (EDTA), and 1 mM of ethylene glycol tetraacetic acid (pH 7.4), using a ground glass pestle in a Dounce homogenizer. After six strokes, the homogenate was mixed 1:1 with 0.4% diethylamine (DEA) in a 100-mM NaCl solution before an additional six strokes, and then centrifuged at 135,000 g at 4° C. for 45 min. The supernatant (DEA-soluble fraction containing extracellular and cytosolic proteins) was collected and neutralized with 10% of 0.5M of Tris-HCl (pH 6.8). Aβ1-40 and Aβ1-42 were individually measured by enzyme-linked immunosorbent assay (ELISA) from the soluble fraction using commercially available kits (Biolegend; #SIG-38954 and #SIG-38956, respectively) according to the manufacturer instructions.

5XFAD AD-Tg mice [2] = test: Aβ plaque quantitation (immunohistochemistry) in 5XFAD AD-Tg mice; type: in vivo, mouse
Procedure: Tissue processing and immunohistochemistry were performed on paraffin embedded sectioned mouse (6 μm thick) and human (10 μm thick) brains. For human ICAM-1 staining, primary mouse anti-ICAM (1:20 Abcam; ab2213) antibody was used. Slides were incubated for 10 min with 3% H2O2, and a secondary biotin-conjugated anti-mouse antibody was used, followed by biotin/avidin amplification with Vectastain ABC kit (Vector Laboratories). Subsequently, 3,3′-diaminobenzidine (DAB substrate) (Zytomed kit) was applied; slides were dehydrated and mounted with xylene-based mounting solution. For tissue stainings, mice were transcardially perfused with PBS prior to tissue excision and fixation. CP tissues were isolated under a dissecting microscope (Stemi DV4; Zeiss) from the lateral, third, and fourth ventricles of the brain. For whole mount CP staining, tissues were fixated with 2.5% paraformaldehyde (PFA) for 1 hour at 4° C., and subsequently transferred to PBS containing 0.05% sodium azide. Prior to staining, the dissected tissues were washed with PBS and blocked (20% horse serum, 0.3% Triton X-100, and PBS) for 1 h at room temperature. Whole mount staining with primary antibodies (in PBS containing 2% horse serum and 0.3% Triton X-100), or secondary antibodies, was performed for 1 h at room temperature. Each step was followed by three washes in PBS. The tissues were applied to slides, mounted with Immu-mount (9990402, from Thermo Scientific), and sealed with cover-slips. For staining of sectioned brains, two different tissue preparation protocols (paraffin embedded or microtomed free-floating sections) were applied, as previously described (Baruch et al, 2013; Kunis et al, 2013). […] Microscopic analysis, was performed using a fluorescence microscope (E800; Nikon) or laser-scanning confocal microscope (Carl Zeiss, Inc.). The fluorescence microscope was equipped with a digital camera (DXM 1200F; Nikon), and with either a 20×NA 0.50 or 40×NA 0.75 objective lens (Plan Fluor; Nikon). […] For quantification of staining intensity, total cell and background staining was measured using ImageJ software (NIH), and intensity of specific staining was calculated, as previously described (Burgess et al, 2010). […]
From each brain, 6 μm coronal slices were collected, and eight sections per mouse, from four different pre-determined depths throughout the region of interest (dentate gyrus or cerebral cortex) were immunostained. […]

aged mice (18 months) = test: p300 inhibition in aged mice, flow cytometry of spleen and CP; type: in vivo, mouse; conditions: p300i 8.9 mg/kg/d i.p. for 1 week vs DMSO, examined a day after cessation
Procedure: Mice were transcardially perfused with PBS, and tissues were treated as previously described (Baruch et al, 2013). Brains were dissected and the different brain regions were removed under a dissecting microscope (Stemi DV4; Zeiss) in PBS, and tissues were dissociated using the gentleMACS™ dissociator (Miltenyi Biotec). Choroid plexus tissues were isolated from the lateral, third and fourth ventricles of the brain, incubated at 37° C. for 45 min in PBS (with Ca^2+/Mg^2+) containing 400 U/ml collagenase type IV (Worthington Biochemical Corporation), and then manually homogenized by pipetting. Spleens were mashed with the plunger of a syringe and treated with ACK (ammonium chloride potassium) lysing buffer to remove erythrocytes. In all cases, samples were stained according to the manufacturers' protocols. All samples were filtered through a 70 μm nylon mesh, and blocked with anti-Fc CD16/32 (1:100; BD Biosciences). For intracellular staining of IFN-γ, the cells were incubated with […] (10 ng/ml; Sigma-Aldrich) and ionomycin (250 ng/ml; Sigma-Aldrich) for 6 h, and Brefeldin-A (10 μg/ml; Sigma-Aldrich) was added for the last 4 h. Intracellular labeling of cytokines was done with BD Cytofix/Cytoperm™ Plus fixation/permeabilization kit (cat. no. 555028). […] Cells were analyzed on an LSRII cytometer (BD Biosciences) using FlowJo software. […]

Chain of p300 (B2RWS6 whole entry): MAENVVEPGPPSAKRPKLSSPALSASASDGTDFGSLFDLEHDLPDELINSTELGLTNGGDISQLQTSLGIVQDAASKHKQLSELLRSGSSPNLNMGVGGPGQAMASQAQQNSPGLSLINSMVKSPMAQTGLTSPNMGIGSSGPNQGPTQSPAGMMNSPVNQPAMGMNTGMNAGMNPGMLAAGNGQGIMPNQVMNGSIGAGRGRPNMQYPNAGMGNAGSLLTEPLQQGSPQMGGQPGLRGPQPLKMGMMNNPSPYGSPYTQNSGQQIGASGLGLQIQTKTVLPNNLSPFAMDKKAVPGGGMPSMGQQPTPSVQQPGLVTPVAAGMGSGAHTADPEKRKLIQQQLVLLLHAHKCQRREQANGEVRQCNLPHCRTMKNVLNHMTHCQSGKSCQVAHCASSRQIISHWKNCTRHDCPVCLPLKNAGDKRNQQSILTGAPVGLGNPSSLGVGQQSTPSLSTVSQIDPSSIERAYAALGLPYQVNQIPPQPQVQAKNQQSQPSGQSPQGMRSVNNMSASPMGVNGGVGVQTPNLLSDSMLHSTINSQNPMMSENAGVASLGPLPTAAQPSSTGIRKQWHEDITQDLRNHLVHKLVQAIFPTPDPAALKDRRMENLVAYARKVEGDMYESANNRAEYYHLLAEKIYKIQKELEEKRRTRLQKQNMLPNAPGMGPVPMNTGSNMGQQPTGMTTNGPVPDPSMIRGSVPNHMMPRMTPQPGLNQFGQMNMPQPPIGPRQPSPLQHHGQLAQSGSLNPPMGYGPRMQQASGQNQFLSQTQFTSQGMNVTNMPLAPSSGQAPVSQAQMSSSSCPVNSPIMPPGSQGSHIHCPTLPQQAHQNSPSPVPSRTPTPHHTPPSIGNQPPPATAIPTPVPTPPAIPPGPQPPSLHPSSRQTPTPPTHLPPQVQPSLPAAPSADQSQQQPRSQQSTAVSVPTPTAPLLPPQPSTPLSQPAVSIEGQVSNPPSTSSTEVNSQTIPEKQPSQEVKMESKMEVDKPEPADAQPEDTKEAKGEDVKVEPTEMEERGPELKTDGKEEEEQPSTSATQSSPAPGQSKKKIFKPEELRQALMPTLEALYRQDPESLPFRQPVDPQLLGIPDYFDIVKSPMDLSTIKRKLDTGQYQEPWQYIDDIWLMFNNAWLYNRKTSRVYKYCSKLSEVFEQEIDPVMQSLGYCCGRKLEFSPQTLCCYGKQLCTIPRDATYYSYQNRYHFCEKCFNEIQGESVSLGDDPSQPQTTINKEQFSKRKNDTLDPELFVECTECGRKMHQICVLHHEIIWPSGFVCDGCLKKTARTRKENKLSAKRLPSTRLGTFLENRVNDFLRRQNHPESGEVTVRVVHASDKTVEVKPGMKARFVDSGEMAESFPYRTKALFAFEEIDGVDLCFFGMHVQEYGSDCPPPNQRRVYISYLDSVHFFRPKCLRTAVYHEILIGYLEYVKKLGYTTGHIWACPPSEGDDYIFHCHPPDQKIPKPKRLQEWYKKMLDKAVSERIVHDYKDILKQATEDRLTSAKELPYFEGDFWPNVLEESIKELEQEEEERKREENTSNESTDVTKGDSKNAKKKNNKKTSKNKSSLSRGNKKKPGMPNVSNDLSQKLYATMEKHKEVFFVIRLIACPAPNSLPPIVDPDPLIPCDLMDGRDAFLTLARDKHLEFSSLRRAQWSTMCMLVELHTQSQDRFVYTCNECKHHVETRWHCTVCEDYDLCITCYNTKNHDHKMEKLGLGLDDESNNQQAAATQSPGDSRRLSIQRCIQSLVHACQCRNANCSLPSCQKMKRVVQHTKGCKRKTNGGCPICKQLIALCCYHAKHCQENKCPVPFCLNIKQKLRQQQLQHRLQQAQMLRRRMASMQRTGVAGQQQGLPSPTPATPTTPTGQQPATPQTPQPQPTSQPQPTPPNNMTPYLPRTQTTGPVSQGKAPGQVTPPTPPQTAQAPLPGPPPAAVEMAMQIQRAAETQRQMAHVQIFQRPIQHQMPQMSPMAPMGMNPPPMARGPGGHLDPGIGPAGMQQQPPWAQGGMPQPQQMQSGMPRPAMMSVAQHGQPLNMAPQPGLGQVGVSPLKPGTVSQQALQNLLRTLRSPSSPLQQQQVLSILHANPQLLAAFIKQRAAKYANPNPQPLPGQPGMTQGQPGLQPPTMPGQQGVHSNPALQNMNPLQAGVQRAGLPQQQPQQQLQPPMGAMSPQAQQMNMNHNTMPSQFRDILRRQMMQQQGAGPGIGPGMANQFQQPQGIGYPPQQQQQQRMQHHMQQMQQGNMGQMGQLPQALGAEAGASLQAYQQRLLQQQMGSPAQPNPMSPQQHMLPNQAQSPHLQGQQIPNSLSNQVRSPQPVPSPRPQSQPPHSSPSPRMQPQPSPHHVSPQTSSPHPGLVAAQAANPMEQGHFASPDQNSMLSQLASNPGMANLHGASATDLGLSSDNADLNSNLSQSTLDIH

CC1=NN(c2ccc(C(=O)O)cc2)C(=O)/C1=C\c1ccc(-c2cc(C)c(C)cc2[N+](=O)[O-])o1 [p300i, 4-(4-((5-(4,5-dimethyl-2-nitrophenyl)furan-2-yl)methylene)-3-methyl-5-oxo-4,5-dihydro-1H-pyrazol-1-yl)benzoic acid]
effect on Treg suppressive activities (p300): affect Treg suppressive activities while leaving protective T effector cell responses intact | cerebral sAβ (Aβ1-40/Aβ1-42) levels (5XFAD AD-Tg mice [1]; one course of p300i): effective in reducing cerebral sAβ | effect on sAβ1-42 (5XFAD AD-Tg mice [1]; repeated courses of p300i compared with one course): stronger | cerebral sAβ (Aβ1-40/Aβ1-42) levels (5XFAD AD-Tg mice [1]; two courses of p300i with interval of 1 month): effective in reducing cerebral sAβ | cerebral Aβ plaque load (5XFAD AD-Tg mice [2]; 10-month old AD-Tg mice, p300i for 1 week, examined 3 weeks later): significant reduction | reduction of cerebral plaque load (5XFAD AD-Tg mice [2]; single course of p300i, examined 2 months later): evident even two months after a single course of treatment | reduction of cerebral plaque load (5XFAD AD-Tg mice [2]; two courses of p300i with 1-month interval, compared with single course): stronger | IFN-γ-expressing cells in the CP (aged mice (18 months)): elevated levels; also recorded: elevation | IFN-γ-expressing cells in the spleen (aged mice (18 months)): elevated levels; also recorded: elevation
